37 compounds from ChEMBL document CHEMBL3826967, “Small molecule non-peptide inhibitors of botulinum neurotoxin serotype E: Structure-activity relationship and a pharmacophore model” (Bioorg Med Chem, 2016) can be followed below.

In general, inhibition refers to the relative decrease from the control value, in per cent. What is called Ki is the equilibrium dissociation constant of an inhibitor or competing ligand from its target. Read a high Ki as weaker binding. A word on the IC50: it is the concentration at which inhibition is half-maximal. Higher therefore signals a need for much substance.

One test addresses T1, Botulinum neurotoxin type E (Clostridium botulinum) (UniProt Q00496).
T1 sequence (whole entry): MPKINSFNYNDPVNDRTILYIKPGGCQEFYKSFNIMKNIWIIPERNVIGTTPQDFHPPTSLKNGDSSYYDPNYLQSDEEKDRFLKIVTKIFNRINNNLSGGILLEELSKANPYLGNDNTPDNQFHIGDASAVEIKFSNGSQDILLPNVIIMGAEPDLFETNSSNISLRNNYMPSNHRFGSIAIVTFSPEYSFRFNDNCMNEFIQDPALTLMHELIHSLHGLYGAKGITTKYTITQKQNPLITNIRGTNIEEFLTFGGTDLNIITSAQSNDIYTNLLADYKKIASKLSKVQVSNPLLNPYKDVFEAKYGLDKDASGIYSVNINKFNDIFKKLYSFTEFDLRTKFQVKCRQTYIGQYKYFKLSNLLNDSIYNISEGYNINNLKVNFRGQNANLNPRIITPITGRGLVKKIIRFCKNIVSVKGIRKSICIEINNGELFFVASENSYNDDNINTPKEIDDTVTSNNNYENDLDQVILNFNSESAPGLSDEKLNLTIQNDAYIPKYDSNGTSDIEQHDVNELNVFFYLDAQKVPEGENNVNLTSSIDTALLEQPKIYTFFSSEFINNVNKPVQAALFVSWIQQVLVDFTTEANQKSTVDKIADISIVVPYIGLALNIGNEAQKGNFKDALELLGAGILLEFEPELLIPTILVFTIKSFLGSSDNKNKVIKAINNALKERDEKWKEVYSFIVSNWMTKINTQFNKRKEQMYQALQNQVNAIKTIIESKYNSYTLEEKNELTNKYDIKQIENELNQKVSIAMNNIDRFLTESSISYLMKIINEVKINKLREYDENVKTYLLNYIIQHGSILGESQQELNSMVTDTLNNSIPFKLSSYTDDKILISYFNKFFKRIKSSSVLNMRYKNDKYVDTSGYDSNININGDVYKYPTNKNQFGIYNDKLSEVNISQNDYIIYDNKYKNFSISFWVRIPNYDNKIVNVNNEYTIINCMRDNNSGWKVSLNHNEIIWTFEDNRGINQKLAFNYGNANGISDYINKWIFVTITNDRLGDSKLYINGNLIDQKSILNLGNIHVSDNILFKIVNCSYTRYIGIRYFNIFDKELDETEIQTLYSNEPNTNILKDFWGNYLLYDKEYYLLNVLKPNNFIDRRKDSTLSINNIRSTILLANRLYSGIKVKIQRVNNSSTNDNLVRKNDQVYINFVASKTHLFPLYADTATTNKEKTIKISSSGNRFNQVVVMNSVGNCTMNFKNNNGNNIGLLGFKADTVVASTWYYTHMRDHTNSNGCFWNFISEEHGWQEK
Kind of test: Inhibition of endopeptidase activity of Clostridium botulinum BoNT/E light chain using SNAP-25 as substrate at 20 uM after 15 mins by HPLC analysis.
With `O=C(O)c1ccccc1C(=O)c1ccc2c3c(cccc13)CC2`, the inhibition came to 11.5%. `O=C(O)/C=C/C(=O)Nc1ccc2c(c1)Cc1cc([N+](=O)[O-])ccc1-2`: the inhibition is 19.5%. The compound `Cc1cc2c(cc1C(=O)c1ccccc1C(=O)O)CCCC2` gave an inhibition of 24.8%. Same read-out and setting: in the case of `O=c1c2cc(Cl)ccc2c2ccc(Cl)cc2c(=O)n1-c1ccc2c(c1)Cc1ccccc1-2` it was 48%; in that of `O=C(O)c1ccccc1C(=O)Nc1cc2c(cc1Br)-c1ccccc1C2=O`, 26.2%; in that of `c1ccc2c(c1)Cc1ccccc1-2`, 17.3%. The same measure, in the same setting: the result for `O=c1c2cc([N+](=O)[O-])ccc2c2ccc([N+](=O)[O-])cc2c(=O)n1-c1ccc2c(c1)Cc1ccccc1-2` reads 24.7%; that for `O=C(O)c1ccccc1C(=O)c1ccc2c(c1)Cc1ccccc1-2`, 80.1%. The compound `Cc1cccc(C)c1NC(=S)NNC(=O)c1ccncc1` came in with an inhibition of 28%.

For the compound `O=C(O)c1ccccc1-c1ccccc1C(=O)Nc1ccc2c(c1)Cc1cc(F)ccc1-2`, the inhibition was determined as 47.6%. The same measure, in the same setting: in the case of `O=c1c2cc(Cl)ccc2c2ccc(Cl)cc2c(=O)n1-c1ccc2c(c1)Cc1cc(Cl)cc(Cl)c1-2` it was 68.9%; in that of `O=C(O)c1ccccc1-c1ccccc1C(=O)Nc1ccc2c(c1)Cc1ccccc1-2`, 37.2%; in that of `O=C(O)c1cccc(F)c1C(=O)c1ccc2ccccc2c1`, 43.9%. Regarding `O=C(O)c1ccccc1C(=O)c1ccc(O)cc1O`, the inhibition amounted to 14.7%. Same read-out and setting: the result for `O=C(Nc1ccc2c(c1)C(=O)c1ccccc1-2)c1ccccc1` reads 12.7%. Still for that read-out and setting: in the case of `CNc1ccc(C(=O)c2ccccc2C(=O)O)cc1[N+](=O)[O-]` it was 14.1%; in that of `O=C(O)c1ccccc1C(=O)CCC(=O)c1ccccc1C(=O)O`, 21.2%. Regarding `O=C1c2ccccc2-c2ccc(NC(=O)C3CCCCC3C(=O)O)cc21` (centres undefined), the inhibition was found to be 18.3%. Same read-out and setting: the result for `O=C(O)c1ccccc1C(=O)c1ccc(Cl)cc1` reads 0%; that for `O=C(O)c1ccccc1-c1ccccc1C(=O)Nc1ccc2c(c1)C(=O)c1ccccc1-2`, 20.2%. On the same count and under the same terms, the result for `O=C(O)c1ccccc1C(=O)c1ccc(-c2ccccc2)cc1` reads 37.8%; that for `COc1ccc2c(c1)Cc1cc(NC(=O)c3ccccc3-c3ccccc3C(=O)O)ccc1-2`, 20.9%; that for `CC(=O)Nc1cc2c(cc1N)-c1ccccc1C2`, 13.7%. Still for that read-out and setting: the result for `O=C1c2ccccc2-c2cc(Br)c(NC(=O)C3CCCCC3C(=O)O)cc21` (centres undefined) reads 19.3%; that for `O=C(O)c1ccccc1C(=O)c1ccccc1`, 15.9%. `O=C(O)c1cc([N+](=O)[O-])ccc1-c1ccc([N+](=O)[O-])cc1C(=O)Nc1ccc2c(c1)Cc1ccccc1-2` had an inhibition of 82%. The same measure, in the same setting: in the case of `O=C(O)c1cc(Cl)ccc1-c1ccc(Cl)cc1C(=O)Nc1ccc2c(c1)Cc1cc(Cl)cc(Cl)c1-2` it was 79.1%; in that of `O=C(O)c1ccccc1-c1ccccc1C(=O)Nc1ccc2c(c1)C(O)c1ccccc1-2` (centres undefined), 20%; in that of `O=C(NNC(=S)Nc1ccccc1Cl)c1ccncc1`, 19%.

The compound `O=C(Nc1ccccc1)c1cc2cc3ccccc3cc2cc1O` registered an inhibition of 70.1%. Still for that read-out and setting: in the case of `O=C(O)C1CCCCC1C(=O)Nc1ccc2c(c1)Cc1ccccc1-2` (centres undefined) it was 12%; in that of `O=C(O)c1ccccc1C(=O)c1ccc2oc(O)nc2c1`, 35%; in that of `O=C(O)c1cc(Cl)ccc1-c1ccc(Cl)cc1C(=O)Nc1ccc2c(c1)Cc1ccccc1-2`, 88.3%. The same measure, in the same setting: the result for `O=C(O)c1ccccc1C(=O)c1cc(Cl)cc(Cl)c1O` reads 19.2%; that for `O=C(O)c1ccccc1C(=O)Nc1ccc2c(c1)C(=O)c1ccccc1-2`, 14.8%.

The compound `O=C(O)c1ccc(C(=O)c2ccccc2C(=O)O)cc1` registered an inhibition of 13.7%. `O=C(O)c1ccccc1C(=O)c1ccc2c(c1)CCC2`: the inhibition turned out to be 16.3%.

The next test has as its target T2, Botulinum neurotoxin type E (Clostridium botulinum, UniProt Q00496).
T2 sequence (Q00496 whole entry): T1 sequence (whole entry)
Kind of test: Inhibition of protease activity of Clostridium botulinum BoNT/E light chain using SNAP-25 as substrate after 15 mins by Dixon plot analysis.
For `O=C(O)c1ccccc1C(=O)c1ccc2c(c1)Cc1ccccc1-2`, the inhibition constant (Ki) is 1.29 µM.

For another test, the target named is T1, Botulinum neurotoxin type E (Clostridium botulinum). Nature of the test: (§1) Inhibition of endopeptidase activity of Clostridium botulinum BoNT/E light chain using SNAP-25 as substrate after 15 mins by HPLC analysis.
As to `O=C(O)c1cc(Cl)ccc1-c1ccc(Cl)cc1C(=O)Nc1ccc2c(c1)Cc1cc(Cl)cc(Cl)c1-2`, the inhibition result was “Dose-dependent effect”.

The target of another test is T2, Botulinum neurotoxin type E. The test is described as §1.
As to `O=c1c2cc(Cl)ccc2c2ccc(Cl)cc2c(=O)n1-c1ccc2c(c1)Cc1cc(Cl)cc(Cl)c1-2`, the IC50 was determined as 9.8 µM. This lies in the single-digit micromolar range. Still for that read-out and setting: in the case of `O=C(O)c1cc([N+](=O)[O-])ccc1-c1ccc([N+](=O)[O-])cc1C(=O)Nc1ccc2c(c1)Cc1ccccc1-2` it was 2.7 µM.

The compound `O=C(O)c1cc(Cl)ccc1-c1ccc(Cl)cc1C(=O)Nc1ccc2c(c1)Cc1cc(Cl)cc(Cl)c1-2` displayed an IC50 of 3 µM. Still for that read-out and setting: the result for `O=C(Nc1ccccc1)c1cc2cc3ccccc3cc2cc1O` reads 2.4 µM; that for `O=C(O)c1cc(Cl)ccc1-c1ccc(Cl)cc1C(=O)Nc1ccc2c(c1)Cc1ccccc1-2`, 3.2 µM.
